In US20220073536A1 (Rigel Pharmaceuticals, Inc., priority 2003, published 2022) one finds IC50 data, which are given here for 21 compounds.

The structures appear in SMILES notation. Counter-ions that a name gives are not always drawn. Like-named read-outs stand apart in the source and are kept apart here.

The subject of this experiment is cultured human mast cells (CHMC). The experiment in a line: CHMC low cell density IgE activation: tryptase assay. Type of experiment: cell-based. In outline:
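Fluorogenic readout of tryptase released into the supernatant (30 min substrate incubation, room temperature) measures degranulation. Cells were plated at low density (1000–1500/well, varied by donor) and triggered with anti-IgE for 30 min at 37 °C.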

The mark [1] stands for this setting: low cell density CHMC, IgE activation, tryptase release, 8 pt, read-out: LD Tryptase, CHMC, IgE, 8 pt.
[2] abbreviates: low cell density CHMC, IgE activation, tryptase release, 3 pt, read-out: LD Tryptase, CHMC, IgE, 3 pt.
Where [3] appears, read: Homo sapiens, Mast cell, low cell density CHMC, IgE activation, tryptase release, 3 pt, read-out: LD Tryptase, CHMC, IgE, 3 pt.
Where [4] appears, read: Homo sapiens, Mast cell, low cell density CHMC, IgE activation, tryptase release, 8 pt, read-out: LD Tryptase, CHMC, IgE, 8 pt.
The mark [5] stands for this setting: Homo sapiens, Mast cell, low cell density, IgE activation, 3 pt, read-out: LD Tryptase, CHMC, IgE, 3 pt.
The mark [6] stands for this setting: Homo sapiens, Mast cell, low cell density, IgE activation, 8 pt, read-out: LD Tryptase, CHMC, IgE, 8 pt.

Turning to `CC(C)(C)C(=O)NCCCn1ncc2cc(Nc3ncc(F)c(Nc4ccc5c(n4)NC(=O)C(C)(C)O5)n3)ccc21` [Compound 852, N4-(2,2-Dimethyl-3-oxo-4H-5-pyrido[1,4]oxazin-6-yl)-5-fluoro-N2-[1-(3-pivalamidopropyl)indazol-5-yl]-2,4-pyrimidinediamine], the IC50 under setting [1] is less than 10 µM.
Turning to `COc1ccc(Nc2nc(Nc3ccc4c(cnn4CCCN4C(=O)CCC4=O)c3)ncc2F)cc1Cl` [Compound 853, N4-(3-Chloro-4-methoxyphenyl)-5-fluoro-N2-[1-[3-(N-succinimidopropyl)]indazol-5-yl]-2,4-pyrimidinediamine], the IC50 under setting [2] is less than 10 µM and the IC50 under setting [1] was less than 10 µM.
As to `O=C1CCC(=O)N1CCCn1ncc2cc(Nc3ncc(F)c(Nc4ccc(Cl)c(Cl)c4)n3)ccc21` [Compound 854, N4-(3,4-Dichlorophenyl)-5-fluoro-N2-[1-[3-(N-succinimidopropyl)]indazol-5-yl]-2,4-pyrimidinediamine], the IC50 reads like this: under setting [2], less than 10 µM; under setting [1], more than 10 µM.
As for `CC1(C)Oc2ccc(Nc3nc(Nc4ccc5c(cnn5CCCN5C(=O)CCC5=O)c4)ncc3F)cc2NC1=O` [Compound 855, N4-(2,2-Dimethyl-3-oxo-4H-benz[1,4]oxazin-6-yl)-5-fluoro-N2-[1-[3-(N-succinimidopropyl)]indazol-5-yl]-2,4-pyrimidinediamine], the IC50 under setting [2] is less than 10 µM and the IC50 under setting [1] is less than 10 µM.
Turning to `C[C@@H]1Oc2ccc(Nc3nc(Nc4ccc5c(cnn5CCCN5C(=O)CCC5=O)c4)ncc3F)cc2NC1=O` [Compound 856, (S)-5-Fluoro-N4-(2-methyl-3-oxo-2H,4H-benz[1,4]oxazin-6-yl)-N2-[1-[3-(N-succinimidopropyl)]indazol-5-yl]-2,4-pyrimidinediamine], the IC50 under setting [2] was less than 10 µM and the IC50 under setting [1] was less than 10 µM.
Consider `CC1(C)Oc2ccc(Nc3nc(Nc4ccc5c(cnn5CCCN5C(=O)CCC5=O)c4)ncc3F)nc2NC1=O` [Compound 857, N4-(2,2-Dimethyl-3-oxo-4H-5-pyrid[1,4]oxazin-6-yl)-5-fluoro-N2-[1-[3-(N-succinimidopropyl)]indazol-5-yl]-2,4-pyrimidinediamine], for which the IC50 by setting is: under setting [2], less than 10 µM; under setting [1], less than 10 µM.
For the compound `COc1ccc(Nc2nc(Nc3ccc4c(cnn4CCCN4C(=O)CCCC4=O)c3)ncc2F)cc1Cl` [Compound 858, N4-(3-Chloro-4-methoxyphenyl)-N2-[1-[3-(2,6-dioxopiperidino]propyl)indazol-5-yl]-5-fluoro-2,4-pyrimidinediamine], the IC50 runs as follows: under setting [3], less than 10 µM; under setting [4], less than 10 µM.
On to `O=C1CCCC(=O)N1CCCn1ncc2cc(Nc3ncc(F)c(Nc4ccc(Cl)c(Cl)c4)n3)ccc21` [Compound 859, N4-(3,4-Dichlorophenyl)-N2-[1-[3-(2,6-dioxopiperidino)propyl]indazol-5-yl]-5-fluoro-2,4-pyrimidinediamine], for which the IC50 runs as follows: under setting [3], less than 10 µM; under setting [4], less than 10 µM.
Consider `CC1(C)Oc2ccc(Nc3nc(Nc4ccc5c(cnn5CCCN5C(=O)CCCC5=O)c4)ncc3F)cc2NC1=O` [Compound 860, N4-(2,2-Dimethyl-3-oxo-4H-benz[1,4]oxazin-6-yl)-N2-[1-[3-(2,6-dioxopiperidino]propyl)indazol-5-yl]-5-fluoro-2,4-pyrimidinediamine], for which the IC50 runs as follows: under setting [3], less than 10 µM; under setting [4], less than 10 µM.
With `C[C@@H]1Oc2ccc(Nc3nc(Nc4ccc5c(cnn5CCCN5C(=O)CCCC5=O)c4)ncc3F)cc2NC1=O` [Compound 861, (S)-N2-[1-[3-(2,6-Dioxopiperidino]propyl)indazol-5-yl]-5-fluoro-N4-(2-methyl-3-oxo-2H,4H-benz[1,4]oxazin-6-yl)-2,4-pyrimidinediamine], the IC50 runs as follows: under setting [3], less than 10 µM; under setting [4], less than 10 µM.
With `CC1(C)Oc2ccc(Nc3nc(Nc4ccc5c(cnn5CCCN5C(=O)CCCC5=O)c4)ncc3F)nc2NC1=O` [Compound 862, N4-(2,2-Dimethyl-3-oxo-4H-5-pyrid[1,4]oxazin-6-yl)-N2-[1-[3-(2,6-dioxopiperidino]propyl)indazol-5-yl]-5-fluoro-2,4-pyrimidinediamine], the IC50 reads like this: under setting [2], less than 10 µM; under setting [1], less than 10 µM.
For `Fc1cnc(Nc2ccc3[nH]c(C(F)(F)F)nc3c2)nc1Nc1ccc(Cl)c(Cl)c1` [Compound 864, N4-(3,4-Dichlorophenyl)-5-fluoro-N2-(2-trifluoromethyl-1H-benzimidazol-5-yl)-2,4-pyrimidinediamine Ethanesulfonic Acid Salt], the IC50 (Homo sapiens, Mast cell, read-out: LD Tryptase, CHMC, IgE, 3 pt) is more than 10 µM.
As for `CCOCCCn1ncc2cc(Nc3ncc(F)c(Nc4ccc(OC)c(Cl)c4)n3)ccc21` [Compound 871, N4-(3-Chloro-4-methoxyphenyl)-N2-[1-(3-ethoxypropyl)indazol-5-yl]-5-fluoro-2,4-pyrimidinediamine], the IC50 is, setting by setting: under setting [5], less than 10 µM; under setting [6], less than 10 µM.
`CCOCCCn1ncc2cc(Nc3ncc(F)c(Nc4ccc(Cl)c(Cl)c4)n3)ccc21` [Compound 872, N4-(3,4-Dichlorophenyl)-N2-[1-(3-ethoxypropyl)indazol-5-yl]-5-fluoro-2,4-pyrimidinediamine]: the IC50 under setting [5] was less than 10 µM.
Turning to `CCOCCCn1ncc2cc(Nc3ncc(F)c(Nc4ccc5c(c4)NC(=O)C(C)(C)O5)n3)ccc21` [Compound 873, N4-(2,2-Dimethyl-3-oxo-4H-benz[1,4]oxazin-6-yl)-N2-[1-(3-ethoxypropyl)indazol-5-yl]-5-fluoro-2,4-pyrimidinediamine], the IC50 reads like this: under setting [5], less than 10 µM; under setting [6], less than 10 µM.
For the compound `CCOCCCn1ncc2cc(Nc3ncc(F)c(Nc4ccc5c(c4)NC(=O)[C@H](C)O5)n3)ccc21` [Compound 874, (S)-N2-[1-(3-Ethoxypropyl)indazol-5-yl]-5-fluoro-N4-(2-methyl-3-oxo-2H,4H-benz[1,4]oxazin-6-yl)-2,4-pyrimidinediamine], the IC50 was less than 10 µM under setting [5] and less than 10 µM under setting [6].
In the case of `CCOCCCn1ncc2cc(Nc3ncc(F)c(Nc4ccc5c(n4)NC(=O)C(C)(C)O5)n3)ccc21` [Compound 875, N4-(2,2-Dimethyl-3-oxo-4H-5-pyrid[1,4]oxazin-6-yl)-N2-[1-(3-ethoxypropyl)indazol-5-yl]-5-fluoro-2,4-pyrimidinediamine], the IC50 by setting is: (low cell density, IgE activation, 3 pt, read-out: LD Tryptase, CHMC, IgE, 3 pt) less than 10 µM; (low cell density, IgE activation, 8 pt, read-out: LD Tryptase, CHMC, IgE, 8 pt) less than 10 µM.
In the case of `COc1ccc(Nc2nc(Nc3cc(OC)c(OC)c(OC)c3)ncc2F)nc1Cl` [Compound 876, N4-(2-Chloro-3-methoxypyrid-6-yl)-5-fluoro-N2-(3,4,5-trimethoxyphenyl)-2,4-pyrimidinediamine], the IC50 by setting is: under setting [5], less than 10 µM; under setting [6], less than 10 µM.
For `COc1ccc(Nc2ncc(F)c(Nc3ccc(OC)c(Cl)n3)n2)cc1OC` [Compound 877, N4-(2-Chloro-3-methoxypyrid-6-yl)-N2-(3,4-dimethoxyphenyl)-5-fluoro-2,4-pyrimidinediamine], the IC50 under setting [5] is less than 10 µM.
`COc1ccc(Nc2ncc(F)c(Nc3ccc(OC)c(Cl)n3)n2)cc1Cl` [Compound 878, N2-(3-Chloro-4-methoxyphenyl)-N4-(2-chloro-3-methoxypyrid-6-yl)-5-fluoro-2,4-pyrimidinediamine]: the IC50 under setting [5] was more than 10 µM.
In the case of `COc1ccc(Nc2nc(Nc3cc(C)cc(C)c3)ncc2F)nc1Cl` [Compound 879, N4-(2-Chloro-3-methoxypyrid-6-yl)-N2-(3,5-dimethylphenyl)-5-fluoro-2,4-pyrimidinediamine], the IC50 under setting [5] was less than 10 µM and the IC50 under setting [6] was less than 10 µM.
